# From ChEMBL document CHEMBL2010697, “Fragment based drug discovery: practical implementation based on ¹⁹F NMR spectroscopy” (J Med Chem, 2012)
# What was measured:
# Beta-secretase 1 [1] = biological target: T1, Beta-secretase 1 (Homo sapiens, UniProt P56817); test: Binding affinity to BACE1 by surface plasmon resonance method
# Beta-secretase 1 [2] = biological target: T1, Beta-secretase 1; test: Binding affinity to BACE1 by NMR-based differential chemical shift perturbation method
# T1 sequence (P56817 whole entry): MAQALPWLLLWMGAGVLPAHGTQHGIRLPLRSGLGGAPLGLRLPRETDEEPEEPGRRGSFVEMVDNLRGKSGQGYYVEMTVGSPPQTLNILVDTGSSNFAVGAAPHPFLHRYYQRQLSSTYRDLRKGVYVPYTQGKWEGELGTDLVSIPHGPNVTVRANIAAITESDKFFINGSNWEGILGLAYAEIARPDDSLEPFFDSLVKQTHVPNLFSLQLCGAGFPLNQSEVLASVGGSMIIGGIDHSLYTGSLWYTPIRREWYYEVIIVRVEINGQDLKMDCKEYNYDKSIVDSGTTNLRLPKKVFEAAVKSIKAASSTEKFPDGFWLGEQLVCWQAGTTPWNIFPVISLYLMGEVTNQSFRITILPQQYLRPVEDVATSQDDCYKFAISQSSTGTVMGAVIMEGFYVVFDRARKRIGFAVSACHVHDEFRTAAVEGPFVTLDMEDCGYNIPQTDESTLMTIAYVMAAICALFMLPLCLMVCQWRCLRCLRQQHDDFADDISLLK
Compound,Kd (Beta-secretase 1 [1]),Kd (Beta-secretase 1 [2])
Nc1ccc2cc(F)ccc2n1,1.28 mM,1000 µM
NC1=Nc2ccccc2Sc2cccc(F)c21,0.325 mM,400 µM
N=C(N)SCc1c(F)cccc1Cl,0.3 mM,350 µM
Fc1cccc(Cl)c1CN1CCNCC1,> 2 mM,> 1000 µM
Nc1ccc2cc(C(F)(F)F)ccc2n1,3.9 mM,–
Cc1cc(N)nc2ccccc12,1.3 mM,–
Nc1cc(C(F)(F)F)c2ccccc2n1,2.9 mM,–
Nc1ccc2cc(-c3ccccc3F)ccc2n1,0.039 mM,–
Nc1ccc2cc(-c3ccccc3C(F)(F)F)ccc2n1,0.2 mM,200 µM
O=C(NC1CCCCC1)C(F)(F)F,–,> 1000 µM
Cc1ccc2nc(N)ccc2c1,1.6 mM,–
Fc1cccc(C2NCCc3sccc32)c1 (racemic),> 2 mM,> 1000 µM
